Experiment: Promotion of dissolution of sitafloxacin by tartaric acid
Format: physicochemical
From the text: Accordingly, tartaric acid is preferably added in an amount of 0.1 to 1 mole, preferably 1/6 mole to 0.7 mole, more preferably 0.25 to 0.5 mole, especially about 0.5 mole to 1 mole of a quinolone compound, particularly sitafloxacin.

Effect for promoting dissolution of sitafloxacin (0.1 time molar amount (18.3 mg) of tartaric acid together with 500 mg of sitafloxacin (as an anhydrate)): marked improving effects | Effect for promoting dissolution of sitafloxacin (0.5 time molar amount (92 mg) of tartaric acid in combination with 500 mg of sitafloxacin): effect becomes maximum
Compound: N[C@@H]1CN(c2c(F)cc3c(=O)c(C(=O)O)cn([C@@H]4C[C@@H]4F)c3c2Cl)CC12CC2 [sitafloxacin, (−)-7-[(7S)-7-amino-5-azaspirol[2.4]heptan-5-yl]-8-chloro-6-fluoro-1-[(1R,2S)-2-fluoro-1-cyclopropyl]-1,4-dihydro-4-oxo-3-quinolinecarboxylic acid]

Source: US6861071B2, “Highly absorptive solid preparation” (Daiichi Pharmaceutical Co., Ltd., priority 2000, dated 2005)
